# Experimental data: paper PMC5618194, “Orally Delivered Scorpion Antimicrobial Peptides Exhibit Activity against Pea Aphid (Acyrthosiphon pisum) and Its Bacterial Symbionts” (Toxins, 2017)
# Like-named read-outs stand apart in the source and are kept apart here. No end group written: not given here.
# Key:
# A. pisum [1] = assay type: in vivo, Acyrthosiphon pisum; conditions: for % Survival: after three days of feeding, 48 h old nymphs, ten per chamber, five replicates, control AP3 diet survival = 90%; for Kaplan-Meier analysis: Mean, Estimate (survival time): three days of feeding, control 2.880, estimation limited to the largest survival time if censored
# Experimental: (§1) A. pisum nymphs (48 h old) were fed for three days on an artificial AP3 diet in modified chambers. The AP3 diet was mixed with the corresponding AMP or control treatment. Ten nymphs were placed in each chamber and five replicates were included per treatment. AMPs were tested at three different concentrations: 50, 250, and 500 µg/mL. Untreated aphids were fed on the control AP3 diet. Positive control treatments comprised aphids fed on the AP3 diet supplemented with the insecticide imidacloprid (5 µg/mL) or the antibiotic rifampicin (50 µg/mL) (Sigma-Aldrich, Taufkirchen, Germany). Imidacloprid is strongly hydrophobic, and was therefore prepared first as a highly concentrated stock (1000 µg/mL) in acetone and working solutions were diluted in the AP3 diet. The corresponding control (AP3 + acetone) was tested on the aphids, and survival was not affected when compared to AP3 diet alone or AP3 diet diluted with water (data not shown). Mortality was scored after 24, 48, and 72 h of feeding. Aphids that survived the three-day treatment were transferred to agar plates containing bean plant leaves and reared for another two weeks in order to determine the impact of the diets on survival and reproduction.
# All data were analysed using SPSS v17.0 software (SPSS Inc., Chicago, IL, USA) and statistical significance was defined as p < 0.05. For mortality assessment, we used non-parametric survival analysis (Kaplan-Meier) and multiple pairwise comparisons among different groups were carried out using log-rank tests to assess efficiency. The total number of offspring, time to reproduction, and relative numbers of bacterial symbionts were analysed using the Wilcoxon ranked sum test for non-parametric data and a paired t-test for parametric data.
# S. symbiotica [2] = assay: FISH localization of symbiont in treated aphid nymphs; assay type: in vivo, Serratia symbiotica in Acyrthosiphon pisum
# Experimental: (§2) FISH was carried out as previously described, with slight modifications. Treated A. pisum nymphs were fixed for three days in Carnoy’s solution (6:3:1 […]:glacial acetic acid) and then bleached in 6% H2O2 in 96% ethanol for 1 week. After bleaching, samples were washed in 100% ethanol and then hybridized overnight in hybridization buffer (20 mM Tris-HCl pH 8.0, 0.9 M NaCl, 0.01% sodium dodecylsulfate, 30% formamide) containing 100 nM of each fluorescent probe and 500 nM DAPI. After hybridization, samples were rinsed three times with phosphate buffered saline containing 0.3% Triton X-100 and viewed under a Leica TCS SP8 confocal microscope (Leica Microsystems, Wetzlar, Germany). We analysed a minimum of 20 samples from each treatment. The specificity of detection was confirmed using controls with no probe and specimens were pre-treated with RNase.
# B. aphidicola [3] = assay: as above; assay type: in vivo, Buchnera aphidicola in Acyrthosiphon pisum; conditions: highest concentration of each AMP, control treatments
# Experimental: as §2
# S. symbiotica CWBI-2.3 = assay: microbe, parasite or virus in culture; assay type: cell-based, Serratia symbiotica; conditions: broth microdilution (CLSI), 96-well polypropylene plates, 535 medium (Tripticase soy broth), 5 × 10^5 CFU/mL, 18 h, absorbance at 600 nm, two-fold dilutions 500 to 4 µg/mL, lowest concentration causing complete growth inhibition
# Experimental: S. symbiotica strain CWBI-2.3, the only aphid symbiotic bacterium that can be cultivated in the laboratory, was purchased from the Leibniz Institute DSMZ (Braunschweig, Germany) and cultivated as recommended by the supplier. MICs were determined according to the CLSI guidelines using a broth microdilution assay in 96-well polypropylene microtiter plates. The bacteria were cultivated overnight at 28 °C using 535 medium (Tripticase soy broth) and diluted to 5 × 10^5 CFU/mL in broth. The AMPs were dissolved in water to a concentration of 4 mg/mL and a series of two-fold dilutions was prepared in 535 broths, ranging from 500 to 4 µg/mL. S. symbiotica CWBI-2.3 in an unmodified medium was used as a positive control, and blanks were prepared with medium only or with medium and water (the latter to exclude any possible negative effect of water on the bacteria). The bacteria were incubated for 18 h and the absorbance at 600 nm was recorded every 20 min. The MICs were defined as the lowest concentrations of AMP causing complete bacterial growth inhibition.
# Escherichia coli = conditions: cited from earlier work
# [4] = tested on: green peach aphid Myzus persicae (Sulzer); set-up: method as in doi:10.1111/j.1439-0418.2006.01117.x; conditions: cited from earlier work
# A. pisum [5] = assay: Aphid reproduction after AMP feeding (time to reproduction, number of offspring); assay type: in vivo, Acyrthosiphon pisum; conditions: 50 µg/mL for three days; surviving aphids followed two weeks
# Experimental: The effect of each AMP on A. pisum reproduction was determined by counting the number of offspring and recording the delay before reproduction in surviving aphids for two weeks after treatment (Figure 2).
# as §1, with “The corresponding control (AP3 + acetone) was tested on the aphids, and survival was not affected when compared to AP3 diet alone or AP3 diet diluted with water (data not shown).” left out, “Aphids that survived the three-day treatment were transferred to agar plates containing bean plant leaves and reared for another two weeks in order to determine the impact of the diets on survival and reproduction.” left out
# (§3) All data were analysed using SPSS v17.0 software (SPSS Inc., Chicago, IL, USA) and statistical significance was defined as p < 0.05. […] The total number of offspring, time to reproduction, and relative numbers of bacterial symbionts were analysed using the Wilcoxon ranked sum test for non-parametric data and a paired t-test for parametric data.
# B. aphidicola [6] = assay: qPCR relative quantification of symbiont in treated aphids; assay type: in vivo, Buchnera aphidicola in Acyrthosiphon pisum; conditions: 50 µg/mL
# Experimental: (§4) The density of the B. aphidicola and S. symbiotica populations in vivo was determined by qPCR. Genomic DNA was extracted from pools of five aphids, as previously described. Three biological replicates were prepared per treatment. Amplifications were carried out using a StepOnePlus™ Real-Time PCR System (Applied Biosystems, Waltham, MA, USA). The reaction volume was 10 μL, comprising 2 μL of template DNA (25 ng/μL), 10 μM of each specific primer and 5 μL of SYBR Green PCR Master Mix (Applied Biosystems). Each reaction was heated to 95 °C for 10 min, followed by 40 cycles of 95 °C for 15 s and 60 °C for 60 s. Melting curve analysis was performed by increasing the temperature from 60 °C to 95 °C for 15 s, cooling to 60 °C for 60 s and heating to 95 °C for 15 s. […] Relative abundance values for each symbiont were calculated by comparing the threshold cycle (Ct) of each target gene to that of the aphid ribosomal protein L32 gene and efficiencies were calculated using LinReg PCR software.
# as §3
# S. symbiotica [7] = assay: as above; assay type: in vivo, Serratia symbiotica in Acyrthosiphon pisum; conditions: 50 µg/mL
# Experimental: as §4, §3
# [8] = after three days of treatment, compared to control AP3 diet, pools of five aphids, three biological replicates
# [9] = two weeks after treatment, data not shown
compound,measurement,setting,value
O=[N+]([O-])NC1=NCCN1Cc1ccc(Cl)nc1 [Imidacloprid],% Survival,A. pisum [1]; 5 µg/mL in AP3 diet,0%
same,"Kaplan-Meier analysis: Mean, Estimate (survival time)",A. pisum [1]; 5 µg/mL,1.960
same,localization of the S. symbiotica FISH signal,"S. symbiotica [2]; 24 and 48 h after exposure, control treatment",did not affect the localization of the bacterial symbionts
same,localization of the B. aphidicola FISH signal,B. aphidicola [3]; 48 h after treatment,did not affect the localization of the bacterial symbionts
IWSAIWSGIKGLL-NH2 [UyCT5],nymphs killed after the first day,"A. pisum [1]; in vivo, 48 h, 500 µg/mL",10%
same,MIC (In Vitro),S. symbiotica CWBI-2.3,125 µg/mL
GFWGKLWEGVKNAIKKK-NH2 [D11],MIC (In Vitro),S. symbiotica CWBI-2.3,>500 µg/mL
FPFLLSLIPSAISAIKRL-NH2 [Uy234],MIC (In Vitro),S. symbiotica CWBI-2.3,>500 µg/mL
RGFRKHFNKLVKKVKHTISETAHVAKDTAVIAGSGAAVVAAT-NH2 [Stomoxyn],MIC (In Vitro),S. symbiotica CWBI-2.3,>500 µg/mL
"indolicidin: an AMP from bovine neutrophils (ILPWKWPWWPWRR; ends and bridges not checked; UniProt P33046 131-143, looked up)",activity against Escherichia coli,Escherichia coli,showed activity
same,activity against Myzus persicae,[4],showed activity
GFWGKLWEGVKNAI-NH2 [UyCT1],MIC (In Vitro),S. symbiotica CWBI-2.3,125 µg/mL
GNRPVYIPPPRPPHPRL-NH2 [Apidaecin],MIC (In Vitro),S. symbiotica CWBI-2.3,>500 µg/mL
CO[C@H]1/C=C/O[C@@]2(C)Oc3c(C)c(O)c4c(O)c(c(/C=N/N5CCN(C)CC5)c(O)c4c3C2=O)NC(=O)/C(C)=C\C=C\[C@H](C)[C@H](O)[C@@H](C)[C@@H](O)[C@@H](C)[C@H](OC(C)=O)[C@@H]1C [Rifampicin],survival during the two weeks after treatment,"A. pisum [1]; 50 µg/mL for three days, survivors monitored for the following two weeks on bean leaves, data not shown",did not affect aphid survival
same,% Survival,A. pisum [1]; 50 µg/mL in AP3 diet,92.5%
same,"Kaplan-Meier analysis: Mean, Estimate (survival time)",A. pisum [1]; 50 µg/mL,2.925
same,MIC,"S. symbiotica CWBI-2.3; Serratia symbiotica, CWBI2.3, read-out: MIC (In Vitro)",50 µg/mL
same,number of offspring,A. pisum [5],hardly any offspring
same,"density of B. aphidicola (qPCR, relative abundance)",B. aphidicola [6]; [8],significant reduction
same,density of B. aphidicola (qPCR),B. aphidicola [6]; [9],significant reduction
same,"density of S. symbiotica (qPCR, relative abundance)",S. symbiotica [7]; [8],significant reduction
same,density of S. symbiotica (qPCR),S. symbiotica [7]; [9],significant reduction
same,S. symbiotica FISH signal,"S. symbiotica [2]; 48 h after exposure, highest concentration of each AMP, control treatments, minimum of 20 samples per treatment",reduced the S. symbiotica signal
same,intensity of the B. aphidicola FISH signal,"B. aphidicola [3]; aphid nymphs, 24 and 48 h after exposure",neither the AMPs nor rifampicin reduced the intensity of the signal
FPFLKLSLKIPKSAIKSAIKRL-NH2 [D10],MIC (In Vitro),S. symbiotica CWBI-2.3,>500 µg/mL
ILSAIWSGIKSLF-NH2 [UyCT3],MIC (In Vitro),S. symbiotica CWBI-2.3,125 µg/mL
GFWGKLLEGVKKAI-NH2 [D5],MIC (In Vitro),S. symbiotica CWBI-2.3,500 µg/mL
LWGKLWEGVKSLI-NH2 [D3],MIC (In Vitro),S. symbiotica CWBI-2.3,250 µg/mL
FLSTIWNGIKGLL-NH2 [Uy192],MIC (In Vitro),S. symbiotica CWBI-2.3,500 µg/mL
FFSALLSGIKSLF-NH2 [Um4],MIC (In Vitro),S. symbiotica CWBI-2.3,>500 µg/mL
ILSAIWSGIKGLL-NH2 [Uy17],MIC (In Vitro),S. symbiotica CWBI-2.3,250 µg/mL
